Seven molecules from patent publication US20240101573A1, “MACROCYCLIC K-RAS G12C INHIBITOR, PREPARATION METHOD THEREFOR AND USE THEREOF” (Abbisko Therapeutics Co., Ltd., priority 2020, published 2024) can be followed below.

Assay [1] deals with H358. Description: Anti-proliferation 2D CTG test (H358). Type of assay: cell-based. The settings on record: H358 cells, 1500 cells/well, 5 days incubation with compound, CTG readout. Put shortly: (§1)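 H358 (1500 cells/well) and MIA PaCa-2 (500 cells/well) seeded overnight, then treated 5 days at 37 °C with 10-point 1:3 dilutions, top final […], 0.5% DMSO. Viability by CellTiter-Glo luminescence; IC50 from four-parameter fit normalized to plate controls.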

The subject of assay [2] is MIA PaCa-2. Kind of assay: Anti-proliferation 2D CTG test (MIA PaCa-2). It is filed as cell-based. The note with it: MIAPACA-2 cells, 500 cells/well, 5 days incubation with compound, CTG readout. Summed up: as §1
[3] abbreviates: Homo sapiens, MIA PaCa-2, 120 h.

By IC50 is commonly meant the concentration at which inhibition is half-maximal. Regarding `C=CC(=O)N1CCN(c2nc(=O)n3c4nc(c(F)cc24)-c2c(F)cccc2OCC2OC(=O)OC2c2ccnc(C(C)C)c2-3)[C@@H](C)C1` (stereo partly drawn) [Example 62, 11-((S)-4-acryloyl-2-methylpiperazin-1-yl)-15,21-difluoro-7-isopropyl-3a,20a-dihydro-9H,20H-12,14-(epiethane[1,2]diylidene)benzo[b][1,3]dioxazolo[4,5-j]pyrido[3,4-h]pyrimido[6,1-f][1]oxa[5,7]diazacyclodidecyne-2,9-dione], the IC50 in assay [1] (Homo sapiens, NCI-H358, 120 h) turned out to be 0.02 µM; in assay [2] (setting [3]) it was 0.016 µM.

`C=CC(=O)N1CCN(c2nc(=O)n3c4nc(c(F)cc24)-c2c(F)cccc2OCC2OC(C)(C)OC2c2ccnc(C(C)C)c2-3)[C@@H](C)C1` (stereo partly drawn) [Example 63, 11-((S)-4-acryloyl-2-methylpiperazin-1-yl)-15,21-difluoro-7-isopropyl-2,2-dimethyl-3a,20a-dihydro-9H,20H-12,14-(eiethane[1,2]diylidene)benzo[b][1,3]dioxazolo[4,5-j]pyrido[3,4-h]pyrimido[6,1-f][1]oxa[5,7]diazacyclododecin-9-one]: the IC50 in assay [1] (Homo sapiens, NCI-H358, 120 h) came to 0.004 µM; in assay [2] (setting [3]), 0.004 µM.

With `C=CC(=O)N1C[C@H](C)N(c2nc(=O)n3c4nc(c(F)cc24)-c2c(ccc(Cl)c2F)OCC(O)C(O)c2ccnc(C(C)C)c2-3)C[C@H]1C` (stereo partly drawn) [Example 65, (R)-2^4-((2S,5R)-4-acryloyl-2,5-dimethylpiperazin-1-yl)-3^5-chloro-2^6,3^6-difluoro-6,7-dihydroxy-1^2-isopropyl-2^1,2^2-dihydro-4-oxa-2(1,7)-pyrido[2,3-d]pyrimidina-1(3,4)-pyridina-3(1,2)-benz ocycloheptane-2^2-one], the IC50 turned out to be 0.001 µM in assay [1] (Homo sapiens, NCI-H358, 120 h) and 0.001 µM in assay [2] (setting [3]).

Consider `C=CC(=O)N1CCN(c2nc(=O)n3c4nc(c(F)cc24)-c2c(ccc(Cl)c2F)OCC(O)C(O)c2ccnc(C(C)C)c2-3)[C@@H](C)C1` (stereo partly drawn) [Example 66, (R)-2^4-((S)-4-acryloyl-2-methylpiperazin-1-yl)-3^5-chloro-2^6,3^6-difluoro-6,7-dihydroxy-1^2-isopropyl-2^1,2^2-dihydro-4-oxa-2(1,7)-pyrido[2,3-d]pyrimidina-1(3,4)-pyridina-3(1,2)-benzocycloheptane-2^2-one], for which the IC50 in assay [1] came out at 0.005 µM; in assay [2], 0.003 µM.

In the case of `C=CC(=O)N1CCN(c2nc(=O)n3c4nc(c(F)cc24)-c2c(ccc(Cl)c2F)OCC(O)C(O)c2ccnc(C(C)C)c2-3)[C@@H](C)C1` (stereo partly drawn) [Example 67, (S)-2^4-((S)-4-acryloyl-2-methylpiperazin-1-yl)-3^5-chloro-2^6,3^6-difluoro-6,7-dihydroxy-1^2-isopropyl-2^1,2^2-dihydro-4-oxa-2(1,7)-pyrido[2,3-d]pyrimidina-1(3,4)-pyridina-3(1,2)-benzocycloheptane-2^2-one], the 50% inhibitory concentration (IC50) in assay [1] worked out at 1.32 µM; in assay [2] it was 0.859 µM.

Regarding `C=CC(=O)N1CCN(c2nc(=O)n3c4nc(c(F)cc24)-c2c(ccc(Cl)c2F)OCC(O)C(OCC)c2ccnc(C(C)C)c2-3)[C@@H](C)C1` (stereo partly drawn) [Example 68, 2^4-((S)-4-acryloyl-2-methylpiperazin-1-yl)-3^5-chloro-7-ethoxy-2^6,3^6-difluoro-6-hydroxy-1^2-isopropyl-2^1,2^2-dihydro-4-oxa-2(1,7)-pyrido[2,3-d]pyrimidina-1(3,4)-pyridina-3(1,2)-benzocycloheptane-2^2-one], the IC50 turned out to be 0.027 µM in assay [1] and 0.022 µM in assay [2].

Consider `C=CC(=O)N1CCN(c2nc(=O)n3c4nc(c(F)cc24)-c2c(ccc(Cl)c2F)OCC(OCC)C(O)c2ccnc(C(C)C)c2-3)[C@@H](C)C1` (stereo partly drawn) [Example 69, 2^4-((S)-4-acryloyl-2-methylpiperazin-1-yl)-3^5-chloro-6-ethoxy-2^6,3^6-difluoro-7-hydroxy-1^2-isopropyl-2^1,2^2-dihydro-4-oxa-2(1,7)-pyrido[2,3-d]pyrimidina-1(3,4)-pyridina-3(1,2)-benzocycloheptane-2^2-one], for which the IC50 in assay [1] worked out at 0.031 µM; in assay [2], 0.026 µM.
